{"source": "patent US20200209181A1", "about": "“ELECTROCHEMICAL METHOD AND DEVICE FOR DETECTING THE EFFECT OF ANTICANCER DRUGS” (Nano Hesgarsazan Salamat Arya, priority 2016, published 2020)", "type_in_all_cases": "cell-based, human", "key": {"MCF-7 cells [1]": {"system": "MCF-7 cells", "experiment": "Cyclic voltammetry (CV) response of MCF-7 cells attached on SiNW-based biosensor after drug treatment", "from_the_text": "For CV characterization, three-electrode electrochemical cyclic voltammetry may be performed using the electrochemical workstation. Instead of the system electrodes, the SiNW-based biosensor including integrated SiNW electrodes may be used that is designed and fabricated pursuant to the teachings of the present disclosure. CV assay may be performed between the integrated SiNW covered working electrode 103 and counter electrode 104, with an on chip reference electrode 105 (represented in FIGS. 1 and 5A). The reference electrode may be initially calibrated by an Ag/AgCl reference electrode in a solution of about 1 mM ferrocene carboxylic acid with about 1 mM potassium chloride. CV studies may be performed using DC voltage and applying no AC frequency. For CV data recording, measurements may be carried out at about −0.8 V to 0.8 V at a scan rate of about 100 mv/s. In this example, the effect of Mebendazole (MBZ), which is an antitubulin drug that induces tubulin depolymerization in cancer cells, may be investigated via an exemplary electrochemical method of the present disclosure. The MCF-7 cells attached on SiNWs of an exemplary biosensor of the present disclosure may be treated with different doses of MBZ and the electrochemical response of an individual non-treated (hereinafter “CTRL”) cell and treated cells may be monitored. […]"}, "MCF-7 cells [2]": {"system": "MCF-7 cells", "experiment": "Differential pulse voltammetry (DPV) response of MCF-7 cells attached on SiNW-based biosensor after drug treatment", "settings": "for Absolute DPV current peak: about 2 nano-mole per liter MBZ; for Absolute DPV: about 10.5 nano-mole per liter MBZ", "from_the_text": "For DPV measurement, a derivative of linear sweep voltammetry, with a series of regular voltage pulses superimposed on the potential linear sweep. The current may be sampled twice, just before the pulse application and again, late in the pulse lifetime. The current may be measured immediately before each potential change, then the current difference may be plotted as a function of potential. By sampling the current just before the potential was changed, the effect of the charging current may be decreased. In this example, the effect of Mebendazole (MBZ), which is an antitubulin drug that induces tubulin depolymerization in cancer cells, may be investigated via an exemplary electrochemical method of the present disclosure. The MCF-7 cells attached on SiNWs of an exemplary biosensor of the present disclosure may be treated with different doses of MBZ and the electrochemical response of an individual non-treated (hereinafter “CTRL”) cell and treated cells may be monitored. Accordingly, exemplary MCF-7 cell lines isolated from grade I human breast tumors may be used as cancer cells. The MCF-7 cells may be maintained in a CO2 incubator containing about 5% CO2 and at a temperature of about 37° C. in a RPMI-1640 medium supplemented with a 5% fetal bovine serum, and 1% penicillin/streptomycin. The fresh medium may be replaced every other day. Prior to each experiment, cells may be trypsinized to be detached from the substrate and re-suspended on the SiNW electrodes of an exemplary biosensor of the present disclosure. To minimize the effect of trypsinization, the procedure may be done in less than about 4 minutes at a room temperature of about 20° C. to about 22° C. The biosensor including the attached cells may be held in an incubator for about 4 hours to achieve cells attachment on the SiNWs. Then the MBZ drug with a low concentration (about 2 nano-mole per liter) and with a high concentration (about 10.5 nano-mole per liter) may be added to the cells. […]"}, "MCF-7 cells [3]": {"system": "MCF-7 cells", "experiment": "Cell cycle progression of drug treated MCF-7 cells by flowcytometry analysis", "description": "Accordingly, exemplary MCF-7 cell lines isolated from grade I human breast tumors may be used as cancer cells. The MCF-7 cells may be maintained in a CO2 incubator containing about 5% CO2 and at a temperature of about 37° C. in a RPMI-1640 medium supplemented with a 5% fetal bovine serum, and 1% penicillin/streptomycin. The fresh medium may be replaced every other day. Prior to each experiment, cells may be trypsinized to be detached from the substrate and re-suspended on the SiNW electrodes of an exemplary biosensor of the present disclosure. To minimize the effect of trypsinization, the procedure may be done in less than about 4 minutes at a room temperature of about 20° C. to about 22° C. The biosensor including the attached cells may be held in an incubator for about 4 hours to achieve cells attachment on the SiNWs. Then the MBZ drug with a low concentration (about 2 nano-mole per liter) and with a high concentration (about 10.5 nano-mole per liter) may be added to the cells. The signal recording and biological assays may be investigated at about 2, 6 and 10 hours after addition of the drug. In addition, cell cycle progression for CTRL and drug treated MCF-7 cells may be determined by flowcytometry analysis that are shown in FIG. 9A (for CTRL cells), FIG. 9B (for treated cells with about 2 nano-mole per liter of MBZ) and FIG. 9C (for treated cells with about 10.5 nano-mole per liter of MBZ). The cell's fractions in apoptotic (part 901), G0/G1 (part 902), S (part 903) and G2/M (part 904) cycles are observable in all of panels. Also, the state of counted cells for each of these three situations is represented at the Right side of the figures. […] But, proportion of G0/G1 fraction (part 902) was changed in MBZ incubated samples. The peak of G0/G1 was about 1300 in CTRL sample (FIG. 9A) meanwhile it was reduced to about 800 in MBZ (about 2 nano-mole per liter) treated cells (FIG. 9B). The result can be confirmed by side scatter versus forward scatter (SSC-FSC) diagram as a strong sign of cells granularity (represented at Right side of FIGS. 9A, 9B and 9C). […] By increasing the dose of MBZ to about 10.5 nM (FIG. 9C), apoptotic behavior (part 901) of the cells was affected. […] Such disorders in the cycle of the cells after MBZ treatment would be well demanded by affected anodic/cathodic response of the cells measured by SiNWs electrodes."}, "[4]": {"settings": "about 2 nano-mole per liter MBZ"}}, "data": [{"smiles": "COC(=O)Nc1nc2ccc(C(=O)c3ccccc3)cc2[nH]1", "note": "[MBZ, Mebendazole]", "values": [{"measurement": "anodic and cathodic spikes in CV diagrams", "setting": "MCF-7 cells [1]; MBZ about 2 and about 10.5 nano-mole per liter, 2 hours after drug incubation, MCF-7 on SiNW electrodes", "result": "Both anodic and cathodic spikes may be observed"}, {"measurement": "height of the CV spikes", "setting": "MCF-7 cells [1]; MBZ dose increased to about 10.5 nano-mole per liter, versus about 2 nano-mole per liter", "result": "increased by nearly three orders"}, {"measurement": "Absolute DPV current peak", "setting": "MCF-7 cells [2]; 2 hours after treatment (CTRL about 5 nA)", "result": "about 300 nA"}, {"measurement": "Absolute DPV current peak", "setting": "MCF-7 cells [2]; about 12 hours after treatment", "result": "about 900 nA"}, {"measurement": "Absolute DPV", "setting": "MCF-7 cells [2]; 12 hours", "result": "about 2000 nA"}, {"measurement": "Absolute DPV", "setting": "MCF-7 cells [2]; after 2 hours", "result": "about 1400"}, {"measurement": "amount of the cells in G0/G1 phase", "setting": "MCF-7 cells [3]; about 10.5 nM MBZ, similar time", "result": "sharper reduction"}, {"measurement": "G2/M fraction relative to CTRL", "setting": "MCF-7 cells [3]; [4]", "result": "less than half"}, {"measurement": "apoptotic behavior of MCF-7 cells", "setting": "MCF-7 cells [3]; [4]", "result": "did not induce the apoptotic behavior"}, {"measurement": "peak of G0/G1", "setting": "MCF-7 cells [3]; about 2 nano-mole per liter MBZ (CTRL about 1300)", "result": "about 800"}, {"measurement": "apoptotic cells with hypodiploid DNA (subG1 fraction)", "setting": "MCF-7 cells [3]; about 2 nano-mole per liter MBZ, compared with CTRL sample", "result": "slightly increased"}]}]}
